According to patent publication US20030198659A1, “Fibrous pest control” (priority 2001, published 2003):

Experiments:
[1] = test system: Silverleaf Whiteflies; assay: Greenhouse no choice oviposition of whiteflies on squash; format: in vivo, Bemisia argentifolii; conditions: spun sucrose trial
Method: Whiteflies were tested with a “No Choice” protocol using single treated and untreated summer squash plants var. “Seneca.” Two liter, polyethylene soda container arenas holding a single squash plant in a potting soil mixture were used for whitefly studies. Ten mating pairs of whiteflies were introduced into each arena for all studies. Up to forty arenas, depending on the treatment parameters of a given trial, were run simultaneously under identical ambient conditions. Ambient temperature and time of day were tracked during greenhouse trials. […] Counts were made using a binocular dissecting scope. […] While EVA, graphite and PVA fibers were relatively stable in greenhouse studies, the sucrose fibers were quickly degraded by moisture and formed a sugar coating of the leafs surface with numerous raised and stable sugar droplets. This was an expected result and the efficacy of this fiber application was worthy of testing.

[2] = test system: D. radicum; assay: Fibers+optical brightener/cabbage maggot field-cage experiment; format: in vivo, Delia radicum; conditions: rate 0.033 kg ai/100-m row
Excerpt: Fibers+optical brightener/cabbage maggot field-cage experiment. Optical (fluorescent) brighteners are widely used in paints, fabrics, plastics and detergents, wherein they enhance the apparent brightness of the material by absorbing UV radiation and emitting light in the blue visual spectrum (Martinez et al. 2000). These brighteners were feasible to use with our existing technology and could potentially increase fiber effectiveness. Thus in mid-May 2000, we tested the efficacy of optical brighteners added to EVA fibers against cabbage maggots in four large (3.7×3.7×1.8-m) Lumite® field cages. The experiment was a randomized complete block design with four replicates (cages).
Within each cage, six rows (3-m long) were formed about 0.3-m apart by hand plowing. Greenhouse-grown two-leaf stage broccoli cv ‘Southern Comet’ was transplanted into the 6 rows within each cage at a plant spacing of 15 cm. One row of broccoli represented a single treatment within each cage. […]
On May 21 , approximately 175 D. radicum pupae were released into each of the four cages and 10% sucrose solution was provided as a food source for emerging adults. […] Total number of larvae and pupae per plant was recorded.

Compound	Total # of eggs (total mean number of eggs/plant) [1]	Total # of eggs (total mean number of eggs/plant) ([1]; listed as sucrose)	D. radicum larvae per 3-m row of broccoli [2]
OC[C@H]1O[C@@](CO)(O[C@H]2O[C@H](CO)[C@@H](O)[C@H](O)[C@H]2O)[C@@H](O)[C@@H]1O [Sugar, sucrose]	5.867	5.87±1.96	
CCOP(=S)(OCC)Oc1nc(Cl)c(Cl)cc1Cl [Chlorpyrifos drench, chlorpyrifos]			6.0 ± 2.3
